Results reported in patent US20250346576A1, “KCNT1 INHIBITORS COMPRISING A PYRAZOLE CORE AND METHODS OF USE” (PRAXIS PRECISION MEDICINES, INC., priority 2022, published 2025).

Experiments:
[1] = Liver microsome metabolic stability assay (NADPH); format: in vitro ADME; conditions: human liver microsomes, 1.0 μM compound, 0.5 mg/ml protein, 37° C., read-out: CLint (HClint)
Description: Liver Microsome Metabolic Stability Assay (NADPH): • 1) Test compounds were incubated at 37° C. with liver microsomes (pooled from multiple donors) at 1.0 μM in the presence of NADPH (˜1.0 mM) at 0.5 mg/ml microsomal protein. • 2) Positive controls include testosterone (3A4 substrate), propafenone (2D6) and diclofenac (2C9). They are also incubated with microsomes in the presence of NADPH. • 3) Time samples (0, 5, 15, 30, 45 and 60 minutes) are removed and immediately mixed with cold acetonitrile containing internal standard (IS). Test compound incubated with microsomes without NADPH for 60 min are also included. • 4) Duplicate point for each test condition (n=2). • 5) Samples are analyzed by LC/MS/MS; disappearance of test compound is assessed base on peak area ratios of analyte/IS (no standard curve). • 6) An excel data summary, calculated intrinsic clearance and T1/2 values are provided. • 7) The following equation is used to calculate the microsome clearance: […]
The mg microsomal protein/g liver weight is 45 for 5 species. The liver weight values will use 40 g/kg, 30 g/kg, 32 g/kg, 20 g/kg and 88 g/kg for rat, monkey, dog, human and mouse, respectively. The liver clearance will be calculated using CLint(mic) with the following equation: […]

[2] = biological target: T1, KCNT1 (KNa1.1, Slack) (Homo sapiens, UniProt Q5JUK3); assay: KCNT1 patch clamp assay (SyncroPatch 384PE, tetracycline inducible HEK-TREX cell line); format: cell-based; conditions: WT KCNT1, HEK-TREX cells, perforated patch, step from -80 mV to 0 mV, room temperature; read-out: WT (KCNT1 inhibition IC50)
T1 construct: expressed in transfected cells; host or cells: HEK-TREX (tetracycline inducible cell line)
T1 sequence (Q5JUK3 1-1230): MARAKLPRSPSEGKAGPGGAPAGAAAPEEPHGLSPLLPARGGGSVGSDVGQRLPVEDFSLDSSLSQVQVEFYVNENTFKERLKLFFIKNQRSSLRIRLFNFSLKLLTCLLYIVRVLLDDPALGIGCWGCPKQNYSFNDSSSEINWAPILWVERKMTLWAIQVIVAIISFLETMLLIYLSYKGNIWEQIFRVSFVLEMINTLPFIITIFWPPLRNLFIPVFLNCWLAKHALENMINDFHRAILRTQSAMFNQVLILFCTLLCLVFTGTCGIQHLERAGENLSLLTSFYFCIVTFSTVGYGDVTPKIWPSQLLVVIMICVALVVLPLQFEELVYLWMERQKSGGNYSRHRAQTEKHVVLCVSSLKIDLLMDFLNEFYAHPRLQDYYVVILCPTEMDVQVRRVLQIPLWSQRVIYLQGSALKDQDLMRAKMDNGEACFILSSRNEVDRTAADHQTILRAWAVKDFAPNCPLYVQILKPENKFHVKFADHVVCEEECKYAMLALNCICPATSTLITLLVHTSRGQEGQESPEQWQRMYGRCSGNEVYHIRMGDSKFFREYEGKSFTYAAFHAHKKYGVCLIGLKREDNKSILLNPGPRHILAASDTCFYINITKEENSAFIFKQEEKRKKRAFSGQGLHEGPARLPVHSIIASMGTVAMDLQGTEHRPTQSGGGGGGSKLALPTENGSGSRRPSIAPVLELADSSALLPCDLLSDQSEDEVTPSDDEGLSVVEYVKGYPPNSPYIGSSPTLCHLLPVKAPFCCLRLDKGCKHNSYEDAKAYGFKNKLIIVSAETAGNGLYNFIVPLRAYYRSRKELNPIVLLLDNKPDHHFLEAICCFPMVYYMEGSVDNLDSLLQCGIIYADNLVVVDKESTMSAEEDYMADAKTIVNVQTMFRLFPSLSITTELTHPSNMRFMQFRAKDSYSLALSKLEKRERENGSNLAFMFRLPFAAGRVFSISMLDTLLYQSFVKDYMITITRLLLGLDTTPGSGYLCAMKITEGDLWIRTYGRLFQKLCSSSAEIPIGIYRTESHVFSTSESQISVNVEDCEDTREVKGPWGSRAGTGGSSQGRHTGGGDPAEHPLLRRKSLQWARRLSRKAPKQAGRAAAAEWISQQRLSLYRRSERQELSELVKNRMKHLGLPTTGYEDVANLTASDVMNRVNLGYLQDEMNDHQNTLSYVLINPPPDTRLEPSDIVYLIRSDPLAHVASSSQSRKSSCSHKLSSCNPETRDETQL
Description: Inhibition of KCNT1 (KNa1.1, Slack) was evaluated using a tetracycline inducible cell line (HEK-TREX). Currents were recorded using the SyncroPatch 384PE automated, patch clamp system. Pulse generation and data collection were performed with PatchController384 V1.3.0 and DataController384 V1.2.1 (Nanion Technologies). The access resistance and apparent membrane capacitance were estimated using built-in protocols. Current was recorded in perforated patch mode (10 μM escin) from a population of cells. The cells were lifted, triturated, and resuspended at 800,000 cells/ml. The cells were allowed to recover in the cell hotel prior to experimentation. Currents were recorded at room temperature. The external solution contained the following (in mM): NaCl 105, NMDG 40, KCl 4, MgCl2 1, CaCl2 5, and HEPES 10 (pH=7.4, Osmolarity ˜300 mOsm). The extracellular solution was used as the wash, reference, and compound delivery solution. The internal solution contained the following (in mM): NaCl 70, KF 70, KCl 10, EGTA 5, HEPES 5, and Escin 0.01 (pH=7.2, Osmolarity ˜295 mOsm). Escin is made at a 5 mM stock in water, aliquoted, and stored at −20° C. The compound plate was created at 2× concentrated in the extracellular solution. The compound was diluted to 1:2 when added to the recording well. The amount of DMSO in the extracellular solution was held constant at the level used for the highest tested concentration. A holding potential of −80 mV with a 100 ms step to 0 mV was used. Mean current was measured during the step to 0 mV. […] The average mean current from 3 sweeps was calculated and the percent inhibition of each compound was calculated. The percent inhibition as a function of the compound concentration was fit with a Hill equation to derive IC50, slope, minimum parameters, and maximum parameters. If KCNT1 inhibition was less than 50% at the highest tested concentration or if an IC50 could not be calculated, then a percent inhibition was reported in place of the IC50.
In this table, “A” indicates IC50 of less than or equal to 1 μM; “B” indicates inhibition of between 1 μM to 20 μM; and “C” indicates inhibition of greater than or equal to 20 μM.

Row | microsomal CLint at 1 μM [1] [µL/min/mg] | IC50 [2] [µM] | SMILES
1 | < 9.6 | ≤ 1 | Cn1nc(C(F)(F)F)cc1C(=O)NC(C)(C)c1cc(-c2ccnc(C(F)(F)F)c2)nn1C [Compound 1063, 1-methyl-N-(2-(1-methyl-3-(2-(trifluoromethyl)pyridin-4-yl)-1H-pyrazol-5-yl)propan-2-yl)-3-(trifluoromethyl)-1H-pyrazole-5-carboxamide]
2 | < 9.6 | ≤ 1 | Cn1nc(C(F)(F)F)cc1C(=O)NC1(c2cc(-c3ccnc(C(F)(F)F)c3)nn2C)CCC1 [Compound 1064, 1-methyl-N-(1-(1-methyl-3-(2-(trifluoromethyl)pyridin-4-yl)-1H-pyrazol-5-yl)cyclobutyl)-3-(trifluoromethyl)-1H-pyrazole-5-carboxamide]
